For three compounds, melting point and IC50 results are on record in patent publication US8008250B2, “Macrocyclic compounds and compositions useful as BACE inhibitors” (Novartis AG, priority 2005, dated 2011).

One data set concerns the target T1, human BACE (Homo sapiens, UniProt P56817).
T1 construct: Recombinant BACE (extracellular domain, expressed in baculovirus and purified using standard methods); made in house
Nature of the data set: Test 1: Inhibition of Human BACE. Particulars: test not named; sentence follows 'at least one of the above-indicated tests'; assigned to BACE Test 1. The class given is biochemical. The method, then:
Test 1: Inhibition of Human BACE
Recombinant BACE (extracellular domain, expressed in baculovirus and purified using standard methods) at 6 nM concentration is incubated with the test compound at various concentrations for 1 hour at room temperature in 100 mM acetate buffer, pH 4.5, containing 0.1% CHAPS. Synthetic peptide substrate Mca-Ser-Glu-Val-Asn-Leu-Asp-Ala-Glu-Phe-Lys(DNP) (SEQ ID NO: 1) is added to a final concentration of 3 μM and the increase in fluorescence is recorded at excitation of 325 nm and emission at 400 nm in a microplate spectro-fluorimeter for 20 minutes in 1-minute intervals. IC50 values are calculated from percentage of inhibition of BACE-activity as a function of the test compound concentration.

SMILES strings stand for the structures.

The melting point is the temperature of the solid-liquid transition. As usually defined, the IC50 is the concentration that inhibits the measured activity by half.

T1 sequence (P56817 46-457 limits assumed): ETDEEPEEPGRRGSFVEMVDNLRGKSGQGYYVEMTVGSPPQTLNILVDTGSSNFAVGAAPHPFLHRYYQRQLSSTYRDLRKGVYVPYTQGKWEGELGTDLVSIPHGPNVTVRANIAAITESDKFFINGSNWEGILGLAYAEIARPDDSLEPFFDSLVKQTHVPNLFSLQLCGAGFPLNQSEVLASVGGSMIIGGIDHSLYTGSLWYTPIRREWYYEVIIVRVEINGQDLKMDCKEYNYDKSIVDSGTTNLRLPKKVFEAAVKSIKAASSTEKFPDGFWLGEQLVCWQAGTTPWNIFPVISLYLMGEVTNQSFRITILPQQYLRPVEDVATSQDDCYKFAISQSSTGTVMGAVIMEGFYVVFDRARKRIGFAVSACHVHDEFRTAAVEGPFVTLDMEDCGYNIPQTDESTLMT

Turning to `CC(C)c1cccc(CNC[C@@H](O)[C@@H]2Cc3cccc(c3)OCCCCCC(=O)N(C)[C@@H](C)C(=O)N2)c1` [Example 1, (10S,13S)-13-[(R)-1-Hydroxy-2-(3-isopropyl-benzylamino)-ethyl]-9,10-dimethyl-2-oxa-9,12-diaza-bicyclo[13.3.1]nonadeca-1(19),15,17-triene-8,11-dione], the melting point was 132 to 135 °C.

Compound `CC(C)c1cccc(CNC[C@@H](O)[C@@H]2Cc3cccc(c3)CCCCCCC(=O)N(C)[C@@H](C)C(=O)N2)c1` [Example 4, (3S,6S)-3-[(R)-1-Hydroxy-2-(3-isopropyl-benzylamino)-ethyl]-6,7-dimethyl-4,7-diaza-bicyclo[13.3.1]nonadeca-1(18),15(19),16-triene-5,8-dione] came in with an IC50 against human BACE of 250 nM. The compound `CC(C)c1cccc(CNC[C@@H](O)[C@@H]2Cc3cccc(c3)OCCCCS(=O)(=O)C[C@@H](C)C(=O)N2)c1` [Example 6, (9S,12S)-12-[(R)-1-Hydroxy-2-(3-isopropyl-benzylamino)-ethyl]-9-methyl-7,7-dioxo-2-oxa-7lambda*6*-thia-11-aza-bicyclo[12.3.1]octadeca-1(18),14,16-trien-10-one] displayed a melting point of 148 to 150 °C.
